Laboratory results reported in ChEMBL document CHEMBL1138535, “Comparison of beta-lactam and macrolide combination therapy versus fluoroquinolone monotherapy in hospitalized Veterans Affairs patients with community-acquired pneumonia” (2007).

Experiments:
Type in all cases: functional
Homo sapiens [1] = assay: Protection against community-acquired pneumonia in patient with pneumonia severity index-2 assessed as mortality at 500 mg administered once daily for 14 days
Homo sapiens [2] = assay: Protection against community-acquired pneumonia in patient with pneumonia severity index-2 assessed as mortality at 500 mg administered once daily for 30 days
Homo sapiens [3] = assay: Protection against community-acquired pneumonia in patient with pneumonia severity index-5 assessed as mortality at 500 mg administered once daily for 30 days
Homo sapiens [4] = assay: Protection against community-acquired pneumonia in patient with pneumonia severity index-4 assessed as mortality at 500 mg administered once daily for 14 days
Homo sapiens [5] = assay: Protection against community-acquired pneumonia in patient with pneumonia severity index-4 assessed as mortality at 500 mg administered once daily for 30 days
Homo sapiens [6] = assay: Protection against community-acquired pneumonia in patient with pneumonia severity index-5 assessed as mortality at 500 mg administered once daily for 14 days
Homo sapiens [7] = assay: Protection against community-acquired pneumonia in patient with pneumonia severity index-3 assessed as mortality at 500 mg administered once daily for 30 days
Homo sapiens [8] = assay: Protection against community-acquired pneumonia in patient with pneumonia severity index-3 assessed as mortality at 500 mg administered once daily for 14 days

## C[C@H]1COc2c(N3CCN(C)CC3)c(F)cc3c(=O)c(C(=O)O)cn1c23.C[C@H]1COc2c(N3CCN(C)CC3)c(F)cc3c(=O)c(C(=O)O)cn1c23.O [LEVOFLOXACIN]
Homo sapiens [1]
  Activity: 0%
Homo sapiens [2]
  Activity: 0%
Homo sapiens [3]
  Activity: 36.6%
Homo sapiens [4]
  Activity: 4.2%
Homo sapiens [5]
  Activity: 5%
Homo sapiens [6]
  Activity: 26.8%
Homo sapiens [7]
  Activity: 6.3%
Homo sapiens [8]
  Activity: 2.1%
